US12421210B2, “Fused bicyclic heterocycles as therapeutic agents” (NEW YORK UNIVERSITY, priority 2018, dated 2025)

biological target: human NAMPT enzyme (His-hNAMPT) (Homo sapiens (Human), UniProt P43490); assay: NAMPT enzymatic inhibition assay (fluorescence, NADH product); type: biochemical; details: [BPS]; read-out: NAMPT IC50 (μM) [BPS]
Sequence (P43490 whole entry): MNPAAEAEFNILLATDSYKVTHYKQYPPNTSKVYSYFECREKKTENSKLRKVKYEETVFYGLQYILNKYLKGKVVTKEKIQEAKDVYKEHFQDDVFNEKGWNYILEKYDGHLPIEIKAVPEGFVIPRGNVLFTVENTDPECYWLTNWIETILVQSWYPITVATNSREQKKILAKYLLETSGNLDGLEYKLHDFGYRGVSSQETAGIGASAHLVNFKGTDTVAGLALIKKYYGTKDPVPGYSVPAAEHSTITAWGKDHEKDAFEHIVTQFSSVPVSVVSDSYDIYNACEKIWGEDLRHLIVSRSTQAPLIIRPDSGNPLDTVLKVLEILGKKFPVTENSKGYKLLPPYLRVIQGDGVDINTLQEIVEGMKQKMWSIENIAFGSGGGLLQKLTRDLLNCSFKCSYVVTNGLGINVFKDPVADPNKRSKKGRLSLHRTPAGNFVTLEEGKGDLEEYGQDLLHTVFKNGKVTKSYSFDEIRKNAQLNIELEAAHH

IC50 [µM] | SMILES
0.01 to 0.49 | Nc1ccc(/C=C/C(=O)NCC[C@@H]2[C@H]3CN(C(=O)c4cccc(C(=O)O)c4)C[C@@H]23)cn1 [Example 178, 3-((1R,5S,6s)-6-(2-((E)-3-(6-aminopyridin-3-yl)acrylamido)ethyl)-3-azabicyclo[3.1.0]hexane-3-carbonyl)benzoic acid]
1 to 29 | Nc1ccc(/C=C/C(=O)NCC[C@@H]2[C@H]3CN(C(=O)c4ccc(C(=O)O)cc4)C[C@@H]23)cn1 [Example 179, 4-((1R,5S,6s)-6-(2-((E)-3-(6-aminopyridin-3-yl)acrylamido)ethyl)-3-azabicyclo[3.1.0]hexane-3-carbonyl)benzoic acid]
0.5 to 0.99 | O=C(O)c1cccc(C(=O)N2C[C@@H]3[C@@H](CCNC(=O)c4cc5ccncc5o4)[C@@H]3C2)c1 [Example 180, 3-((1R,5S,6s)-6-(2-(furo[2,3-c]pyridine-2-carboxamido)ethyl)-3-azabicyclo[3.1.0]hexane-3-carbonyl)benzoic acid]
1 to 29 | O=C(O)c1cccc(C(=O)N2C[C@@H]3[C@@H](CCNC(=O)c4ccc5nccn5c4)[C@@H]3C2)c1 [Example 181, 3-((1R,5S,6s)-6-(2-(imidazo[1,2-a]pyridine-6-carboxamido)ethyl)-3-azabicyclo[3.1.0]hexane-3-carbonyl)benzoic acid]

same assay, conditions: [HDB]; read-out: NAMPT IC50 (μM) [HDB]

IC50 [µM] | SMILES
0.01 to 0.49 | O=C(/C=C/c1cccnc1)NCC[C@@H]1[C@H]2CN(c3ccc4c(c3)C(=O)NC4)C[C@@H]12 [Example 156, (E)-N-(2-((1R,5S,6s)-3-(3-oxoisoindolin-5-yl)-3-azabicyclo[3.1.0]hexan-6-yl)ethyl)-3-(pyridin-3-yl)acrylamide]
< 0.01 | O=C(/C=C/c1cccnc1)NCC[C@@H]1[C@H]2CN(c3ccc4c(c3)CNC4=O)C[C@@H]12 [Example 157, (E)-N-(2-((1R,5S,6s)-3-(1-oxoisoindolin-5-yl)-3-azabicyclo[3.1.0]hexan-6-yl)ethyl)-3-(pyridin-3-yl)acrylamide]
< 0.01 | O=C(/C=C/c1cccnc1)NCC[C@@H]1[C@H]2CN(c3ccnc(C(F)(F)F)c3)C[C@@H]12 [Example 159, (E)-3-(pyridin-3-yl)-N-(2-((1R,5S,6s)-3-(2-(trifluoromethyl)pyridin-4-yl)-3-azabicyclo[3.1.0]hexan-6-yl)ethyl)acrylamide]
< 0.01 | O=C(/C=C/c1cccnc1)NCC[C@@H]1[C@H]2CN(c3ccnc(Cl)c3)C[C@@H]12 [Example 160, (E)-N-(2-((1R,5S,6s)-3-(2-chloropyridin-4-yl)-3-azabicyclo[3.1.0]hexan-6-yl)ethyl)-3-(pyridin-3-yl)acrylamide]
0.01 to 0.49 | COc1cc(N2C[C@@H]3[C@@H](CCNC(=O)/C=C/c4cccnc4)[C@@H]3C2)ccn1 [Example 161, (E)-N-(2-((1R,5S,6S)-3-(2-methoxypyridin-4-yl)-3-azabicyclo[3.1.0]hexan-6-yl)ethyl)-3-(pyridin-3-yl)acrylamide]
0.01 to 0.49 | O=C(/C=C/c1cccnc1)NCC[C@@H]1[C@H]2CN(c3ncc(F)cn3)C[C@@H]12 [Example 163, (E)-N-(2-((1R,5S,6s)-3-(5-fluoropyrimidin-2-yl)-3-azabicyclo[3.1.0]hexan-6-yl)ethyl)-3-(pyridin-3-yl)acrylamide]
0.01 to 0.49 | O=C(/C=C/c1cccnc1)NCC[C@@H]1[C@H]2CN(c3ncc(Cl)cn3)C[C@@H]12 [Example 164, (E)-N-(2-((1R,5S,6s)-3-(5-chloropyrimidin-2-yl)-3-azabicyclo[3.1.0]hexan-6-yl)ethyl)-3-(pyridin-3-yl)acrylamide]
0.01 to 0.49 | O=C(/C=C/c1cccnc1)NCC[C@@H]1[C@H]2CN(c3ccncn3)C[C@@H]12 [Example 168, (E)-3-(pyridin-3-yl)-N-(2-((1R,5S,6s)-3-(pyrimidin-4-yl)-3-azabicyclo[3.1.0]hexan-6-yl)ethyl)acrylamide]
< 0.01 | O=C(/C=C/c1cccnc1)NCC[C@@H]1[C@H]2CN(c3nccc(C(F)(F)F)n3)C[C@@H]12 [Example 169, (E)-3-(pyridin-3-yl)-N-(2-((1R,5S,6s)-3-(4-(trifluoromethyl)pyrimidin-2-yl)-3-azabicyclo[3.1.0]hexan-6-yl)ethyl)acrylamide]
0.01 to 0.49 | O=C(/C=C/c1cccnc1)NCC[C@@H]1[C@H]2CN(c3ncncn3)C[C@@H]12 [Example 170, (E)-N-(2-((1R,5S,6s)-3-(1,3,5-triazin-2-yl)-3-azabicyclo[3.1.0]hexan-6-yl)ethyl)-3-(pyridin-3-yl)acrylamide]
< 0.01 | NC(=O)c1ccnc(N2C[C@@H]3[C@@H](CCNC(=O)/C=C/c4cccnc4)[C@@H]3C2)n1 [Example 171, 2-((1R,5S,6s)-6-(2-((E)-3-(pyridin-3-yl)acrylamido)ethyl)-3-azabicyclo[3.1.0]hexan-3-yl)pyrimidine-4-carboxamide]
0.01 to 0.49 | COc1nc(N2C[C@@H]3[C@@H](CCNC(=O)/C=C/c4cccnc4)[C@@H]3C2)ncc1F [Example 173, (E)-N-(2-((1R,5S,6s)-3-(5-fluoro-4-methoxypyrimidin-2-yl)-3-azabicyclo[3.1.0]hexan-6-yl)ethyl)-3-(pyridin-3-yl)acrylamide]
0.01 to 0.49 | O=C(/C=C/c1cccnc1)NCC[C@@H]1[C@H]2CN(c3ccccn3)C[C@@H]12 [Example 176, (E)-N-(2-((1R,5S,6s)-3-(pyridin-2-yl)-3-azabicyclo[3.1.0]hexan-6-yl)ethyl)-3-(pyridin-3-yl)acrylamide]
0.01 to 0.49 | O=C(/C=C/c1cccnc1)NCC[C@@H]1[C@H]2CN(c3cnccn3)C[C@@H]12 [Example 177, (E)-N-(2-((1R,5S,6s)-3-(pyrazin-2-yl)-3-azabicyclo[3.1.0]hexan-6-yl)ethyl)-3-(pyridin-3-yl)acrylamide]
0.01 to 0.49 | NC(=O)c1cccc(N2C[C@@H]3[C@@H](CCNC(=O)/C=C/c4cccnc4)[C@@H]3C2)c1 [Example 183, 3-((1R,5S,6s)-6-(2-((E)-3-(pyridin-3-yl)acrylamido)ethyl)-3-azabicyclo[3.1.0]hexan-3-yl)benzamide]
0.01 to 0.49 | CC(=O)Nc1cccc(N2C[C@@H]3[C@@H](CCNC(=O)/C=C/c4cccnc4)[C@@H]3C2)c1 [Example 184, (E)-N-(2-((1R,5S,6s)-3-(3-acetamidophenyl)-3-azabicyclo[3.1.0]hexan-6-yl)ethyl)-3-(pyridin-3-yl)acrylamide]
0.01 to 0.49 | CS(=O)(=O)Nc1cccc(N2C[C@@H]3[C@@H](CCNC(=O)/C=C/c4cccnc4)[C@@H]3C2)c1 [Example 185, (E)-N-(2-((1R,5S,6s)-3-(3-(methylsulfonamido)phenyl)-3-azabicyclo[3.1.0]hexan-6-yl)ethyl)-3-(pyridin-3-yl)acrylamide]
0.01 to 0.49 | NC(=O)c1ccc(N2C[C@@H]3[C@@H](CCNC(=O)/C=C/c4cccnc4)[C@@H]3C2)cc1 [Example 186, 4-((1R,5S,6s)-6-(2-((E)-3-(pyridin-3-yl)acrylamido)ethyl)-3-azabicyclo[3.1.0]hexan-3-yl)benzamide]

Continued, compound first:

SMILES | IC50 [µM]
CC(C)(C)Oc1cccc(N2C[C@@H]3[C@@H](CCNC(=O)/C=C/c4cccnc4)[C@@H]3C2)c1 [Example 158, (E)-N-(2-((1R,5S,6s)-3-(3-(tert-butoxy)phenyl)-3-azabicyclo[3.1.0]hexan-6-yl)ethyl)-3-(pyridin-3-yl)acrylamide] | < 0.01
O=C(/C=C/c1cccnc1)NCC[C@@H]1[C@H]2CN(c3ncc(C(F)(F)F)cn3)C[C@@H]12 [Example 162, (E)-3-(pyridin-3-yl)-N-(2-((1R,5S,6s)-3-(5-(trifluoromethyl)pyrimidin-2-yl)-3-azabicyclo[3.1.0]hexan-6-yl)ethyl)acrylamide] | 0.01 to 0.49
Nc1ccc(/C=C/C(=O)NCC[C@@H]2[C@H]3CN(c4ncc5ccccc5n4)C[C@@H]23)cn1 [Example 165, (E)-3-(6-aminopyridin-3-yl)-N-(2-((1R,5S,6s)-3-(quinazolin-2-yl)-3-azabicyclo[3.1.0]hexan-6-yl)ethyl)acrylamide] | 0.01 to 0.49
O=C(/C=C/c1cccnc1)NCC[C@@H]1[C@H]2CN(c3ncc4c(n3)CCOC4)C[C@@H]12 [Example 166, (E)-N-(2-((1R,5S,6s)-3-(7,8-dihydro-5H-pyrano[4,3-d]pyrimidin-2-yl)-3-azabicyclo[3.1.0]hexan-6-yl)ethyl)-3-(pyridin-3-yl)acrylamide] | 0.01 to 0.49
O=C(/C=C/c1cccnc1)NCC[C@@H]1[C@H]2CN(c3ncc4cc(F)ccc4n3)C[C@@H]12 [Example 167, (E)-N-(2-((1R,5S,6s)-3-(6-fluoroquinazolin-2-yl)-3-azabicyclo[3.1.0]hexan-6-yl)ethyl)-3-(pyridin-3-yl)acrylamide] | 0.01 to 0.49
O=C(/C=C/c1cccnc1)NCC[C@@H]1[C@H]2CN(c3nc(Cl)ncc3F)C[C@@H]12 [Example 172, (E)-N-(2-((1R,5S,6s)-3-(2-chloro-5-fluoropyrimidin-4-yl)-3-azabicyclo[3.1.0]hexan-6-yl)ethyl)-3-(pyridin-3-yl)acrylamide] | < 0.01
NC(=O)c1cnc(N2C[C@@H]3[C@@H](CCNC(=O)/C=C/c4cccnc4)[C@@H]3C2)nc1 [Example 174, 2-((1R,5S,6s)-6-(2-((E)-3-(pyridin-3-yl)acrylamido)ethyl)-3-azabicyclo[3.1.0]hexan-3-yl)pyrimidine-5-carboxamide] | < 0.01
O=C(/C=C/c1cccnc1)NCC[C@@H]1[C@H]2CN(c3nc(C(F)(F)F)cs3)C[C@@H]12 [Example 175, (E)-3-(pyridin-3-yl)-N-(2-((1R,5S,6s)-3-(4-(trifluoromethyl)thiazol-2-yl)-3-azabicyclo[3.1.0]hexan-6-yl)ethyl)acrylamide] | 0.01 to 0.49
Nc1ccc(/C=C/C(=O)NCC[C@@H]2[C@H]3CN(C(=O)c4ccc(C(=O)O)cc4)C[C@@H]23)cn1 [Example 179, 4-((1R,5S,6s)-6-(2-((E)-3-(6-aminopyridin-3-yl)acrylamido)ethyl)-3-azabicyclo[3.1.0]hexane-3-carbonyl)benzoic acid] | 0.5 to 0.99
O=C(O)c1cccc(C(=O)N2C[C@@H]3[C@@H](CCNC(=O)c4cnc5nccn5c4)[C@@H]3C2)c1 [Example 182, 3-((1R,5S,6s)-6-(2-(imidazo[1,2-a]pyrimidine-6-carboxamido)ethyl)-3-azabicyclo[3.1.0]hexane-3-carbonyl)benzoic acid] | 0.01 to 0.49
O=C(/C=C/c1cccnc1)NCC[C@@H]1[C@H]2CN(c3ncc(F)c(O)n3)C[C@@H]12 [Example 187, (E)-N-(2-((1R,5S,6s)-3-(5-fluoro-4-hydroxypyrimidin-2-yl)-3-azabicyclo[3.1.0]hexan-6-yl)ethyl)-3-(pyridin-3-yl)acrylamide] | 0.01 to 0.49
